# Measurements published in US9168329B2, “Beta-peptides with antifungal activity” (Wisconsin Alumni Research Foundation, priority 2006, dated 2015).
# Where two headings read alike, the source gives them in different places. Square brackets hold non-standard residues; d marks the D form. Ends that are not written are not given here. Peptide text beside a SMILES is read from it.
# Key:
# [1] = tested on: Candida albicans (SC5314, ATCC 24433, ATCC 90028); type: cell-based; conditions: for MIC: SC5314
# Procedure: Minimum inhibitory concentration assay. Minimum inhibitory concentrations (MIC) for the β-peptides were determined using the broth microdilution assay described by the Committee for Clinical and Laboratory Standards (formerly known as the National Committee for Clinical Laboratory Standards) (National Committee for Clinical Laboratory Standards Reference method for broth dilution antifungal susceptibility testing of yeasts: approved standard—second edition; NCCLS document M27-A2; NCCLS: Wayne, Pa., 2002). Three strains of Candida albicans were used: SC5314, ATCC 24433, and ATCC 90028. Cells were grown for 24 hours on Sabouraud dextrose agar at 30° C. After 24 hours of growth, the cells were suspended in 0.145 M saline, and the concentration was adjusted to between 1×10^6 cells/mL and 5×10^6 cells/mL in saline. The working suspension was obtained by diluting the suspension 1:1000 in RPMI 1640 (with L-glutamine and without sodium bicarbonate, Invitrogen) buffered with 0.145 mol/L 3-(N-morpholino) propanesulfonic acid (MOPS).
# Twofold serial dilutions of stock solutions of α- or β-peptides or amphotericin B (Calbiochem, solubilized in dimethyl sulfoxide) were made in RPMI 1640, and 100 μL aliquots were put into 96-well plates (Falcon). An equal volume of the cell suspension was added to the wells for a total volume of 200 μL. Growth controls and sterility controls were included.
# Plates were incubated at 35° C. for 48 h and then visually inspected for fungal growth. […] Experiments were performed in duplicate and repeated on at least two different days.
# [2] = tested on: human red blood cells (hRBC); assay: Hemolysis assay; type: cell-based
# Procedure: Hemolysis assay. The hemolysis assay was performed using human red blood cells (hRBC) as described previously (Raguse, et al. J. Am. Chem. Soc. 2002, 124, 12774-12785; Porter, et al. J. Am. Chem. Soc. 2005, 127, 11516-11529). The hRBC were washed three times in TRIS-buffered saline (TBS; 10 mM TRIS, 150 mM NaCl, pH 7.2) and then diluted to a concentration of 1% (v/v) in TBS. The hRBC suspension (80 μL) was added to twofold dilutions of peptides in TBS (20 μL) in a 96-well plate (Falcon). Wells containing hRBC treated with 20 μL TBS provided a negative control, and wells with high concentrations of the peptide melittin (Sigma) served as a positive control. After incubating at 37° C. for 1 h, plates were centrifuged, and 50 μL of the supernatant was diluted with 50 μL of water in a fresh 96-well plate. The absorbance of the diluted supernatant was measured at 405 nm, and the percent hemolysis for each well was calculated from
# [formula] where A405^peptide is the absorbance for the supernatant of hRBC treated with peptide, A405^buffer is the absorbance for the supernatant of hRBC in TBS, and A405^completlysis is the average absorbance for the supernatant of cells treated with melittin at concentrations of 50-400 μg/mL. Experiments were performed in duplicate on at least two different days. Biofilm Antifungal Susceptibility Testing
# [3] = pH 7, physiological ionic strength
# [4] = average over three C. albicans strains, pH 7, physiological ionic strength, Table 1 prints no unit
Compound,"antifungal activity in the planktonic NCCLS assay (in words) [1, 3]",% Hemolysis at MIC [2],"Average MIC ([1]; SC5314, pH 7)",other results
"cecropin B (KWKVFKKIEKMGRNIRNGIVKAGPAIAVLGEAKAL; ends and bridges not checked; UniProt P01508 27-61, looked up) [amphiphilic host-defense α-peptide, reference compound]",neither cecropin B nor a magainin derivative displays any activity,–,–,–
"CC[C@H](C)[C@H](NC(=O)CN)C(=O)NCC(=O)N[C@@H](CCCCN)C(=O)N[C@@H](Cc1ccccc1)C(=O)N[C@@H](CC(C)C)C(=O)N[C@@H](Cc1c[nH]cn1)C(=O)N[C@@H](C)C(=O)N[C@@H](C)C(=O)N[C@@H](CCCCN)C(=O)N[C@@H](CCCCN)C(=O)N[C@@H](Cc1ccccc1)C(=O)N[C@@H](C)C(=O)N[C@@H](CCCCN)C(=O)N[C@@H](C)C(=O)N[C@@H](Cc1ccccc1)C(=O)N[C@H](C(=O)N[C@@H](C)C(=O)N[C@@H](CCC(=O)O)C(=O)N[C@H](C(=O)N[C@@H](CCSC)C(=O)N[C@@H](CC(N)=O)C(=O)N[C@@H](CO)C(N)=O)[C@@H](C)CC)C(C)C [L-Magainin 2 derivative, reference compound] (H-GIGKFLHAAKKFAKAFVAEIMNS-NH2; N-terminus assumed)",neither cecropin B nor a magainin derivative displays any activity,48%,>128 µg/mL,–
"NCCCC[C@@H](CC(N)=O)NC(=O)C[C@H](Cc1ccccc1)NC(=O)[C@H]1CCCC[C@@H]1NC(=O)C[C@H](CCCCN)NC(=O)C[C@H](Cc1ccccc1)NC(=O)[C@H]1CCCC[C@@H]1NC(=O)C[C@H](CCCCN)NC(=O)C[C@H](Cc1ccccc1)NC(=O)[C@H]1CCCC[C@@H]1NC(=O)C[C@@H](N)Cc1ccc(O)cc1 [β-peptide 3, β^3Tyr-(ACHC-β^3Phe-β^3Lys)3]",–,80%,8 µg/mL,–
"CC(C)[C@@H](CC(=O)N[C@@H](CCCCN)CC(N)=O)NC(=O)[C@H]1CCCC[C@@H]1NC(=O)C[C@H](CCCCN)NC(=O)C[C@@H](NC(=O)[C@H]1CCCC[C@@H]1NC(=O)C[C@H](CCCCN)NC(=O)C[C@@H](NC(=O)[C@H]1CCCC[C@@H]1N)C(C)C)C(C)C [β-peptide 6, (ACHC-β^3Val-β^3Lys)3]",–,–,–,"% Hemolysis at MIC ([2]; human red blood cells, at the average MIC): 5%; Average MIC [1, 4]: 17 µg/mL; antifungal activity in the planktonic NCCLS assay (in words) ([1]; pH 7, physiological ionic strength, listed as 6): average MIC is indistinguishable relative to β^3Tyr-containing variant (1); antifungal activity in the planktonic NCCLS assay (in words) ([1]; pH 7, physiological ionic strength, listed as (ACHC-β^3Val-β^3Lys)3): showed activity in the planktonic assay"
"NCCCC[C@@H](CC(N)=O)NC(=O)[C@H]1CCCC[C@@H]1NC(=O)[C@H]1CCCC[C@@H]1NC(=O)C[C@H](CCCCN)NC(=O)[C@H]1CCCC[C@@H]1NC(=O)[C@H]1CCCC[C@@H]1NC(=O)C[C@H](CCCCN)NC(=O)[C@H]1CCCC[C@@H]1NC(=O)[C@H]1CCCC[C@@H]1NC(=O)C[C@@H](N)Cc1ccc(O)cc1 [β-peptide 5, β^3Tyr-(ACHC-ACHC-β^3Lys)3]",–,7%,21 µg/mL,MIC [1]: 16 µg/mL
"CC(C)C[C@@H](CC(=O)N[C@@H](CCCCN)CC(=O)N[C@H]1CCCC[C@@H]1C(=O)N[C@H](CC(=O)N[C@@H](CCCCN)CC(=O)N[C@H]1CCCC[C@@H]1C(=O)N[C@H](CC(=O)N[C@@H](CCCCN)CC(N)=O)CC(C)C)CC(C)C)NC(=O)[C@H]1CCCC[C@@H]1NC(=O)C[C@@H](N)Cc1ccc(O)cc1 [β-peptide 2, β^3Tyr-(ACHC-β^3Leu-β^3Lys)3]",–,73%,11 µg/mL,–
β^3Tyr-(ACHC-β^3Val-β^3Arg)3,showed activity in the planktonic assay,–,–,–
CC(C)C[C@@H](CC(=O)N[C@H]1CCCC[C@@H]1C(=O)N[C@@H](CCCCN)CC(N)=O)NC(=O)C[C@H](CCCCN)NC(=O)[C@H]1CCCC[C@@H]1NC(=O)C[C@H](CC(C)C)NC(=O)C[C@H](CCCCN)NC(=O)[C@H]1CCCC[C@@H]1NC(=O)C[C@H](CC(C)C)NC(=O)C[C@@H](N)Cc1ccc(O)cc1 [β^3Tyr-(β^3Leu-ACHC-β^3Lys)3],–,–,–,MIC [1]: 16 µg/mL
"CC(C)[C@@H](CC(=O)N[C@H]1CCCC[C@@H]1C(=O)N[C@@H](CCCCN)CC(=O)N[C@H](CC(=O)N[C@H]1CCCC[C@@H]1C(=O)N[C@H]1CCCC[C@@H]1C(=O)N[C@@H](CCCCN)CC(N)=O)C(C)C)NC(=O)C[C@@H](NC(=O)C[C@@H](N)CCCCN)C(C)C [β-peptide 7, β^3Lys-β^3Val-β^3Val-ACHC-β^3Lys-β^3Val-ACHC-ACHC-β^3Lys]",lack of antifungal activity,–,–,–
"NCCCC[C@H](CC(N)=O)NC(=O)C[C@@H](Cc1ccccc1)NC(=O)[C@@H]1CCCC[C@H]1NC(=O)C[C@@H](CCCCN)NC(=O)C[C@@H](Cc1ccccc1)NC(=O)[C@@H]1CCCC[C@H]1NC(=O)C[C@@H](CCCCN)NC(=O)C[C@@H](Cc1ccccc1)NC(=O)[C@@H]1CCCC[C@H]1NC(=O)C[C@H](N)Cc1ccc(O)cc1 [(R)β^3Tyr-[(R,R)ACHC—(R)β^3Phe-(R)β^3Lys]3]",–,–,–,MIC [1]: 8 µg/mL
"CC[C@@H](C)[C@@H](NC(=O)CN)C(=O)NCC(=O)N[C@H](CCCCN)C(=O)N[C@H](Cc1ccccc1)C(=O)N[C@H](CC(C)C)C(=O)N[C@H](Cc1c[nH]cn1)C(=O)N[C@H](C)C(=O)N[C@H](C)C(=O)N[C@H](CCCCN)C(=O)N[C@H](CCCCN)C(=O)N[C@H](Cc1ccccc1)C(=O)N[C@H](C)C(=O)N[C@H](CCCCN)C(=O)N[C@H](C)C(=O)N[C@H](Cc1ccccc1)C(=O)N[C@@H](C(=O)N[C@H](C)C(=O)N[C@H](CCC(=O)O)C(=O)N[C@@H](C(=O)N[C@H](CCSC)C(=O)N[C@H](CC(N)=O)C(=O)N[C@H](CO)C(N)=O)[C@H](C)CC)C(C)C [D-Magainin 2 derivative, reference compound] (H-G[dI]G[dK][dF][dL][dH][dA][dA][dK][dK][dF][dA][dK][dA][dF][dV][dA][dE][dI][dM][dN][dS]-NH2; N-terminus assumed)",inactive,48%,>128 µg/mL,–
"CC(C)[C@@H](CC(=O)N[C@@H](CCCCN)CC(=O)N[C@H](CC(=O)N[C@H](CC(=O)N[C@@H](CCCCN)CC(=O)N[C@H](CC(=O)N[C@H](CC(=O)N[C@@H](CCCCN)CC(N)=O)C(C)C)C(C)C)C(C)C)C(C)C)NC(=O)C[C@@H](NC(=O)C[C@@H](N)Cc1ccc(O)cc1)C(C)C [β-peptide 4, β^3Tyr-(β^3Val-β^3Val-β^3Lys)3]",–,9%,69 µg/mL,"antifungal activity in the planktonic NCCLS assay (in words) ([1]; pH 7, physiological ionic strength, listed as 4): substantially weaker antifungal activity; antifungal activity in the planktonic NCCLS assay (in words) ([1]; pH 7, physiological ionic strength, listed as β^3Tyr-(β^3Val-β^3Val-β^3Lys)3): showed activity in the planktonic assay"
C9-β^3Tyr-(ACHC-ACHC-β^3Lys)3,–,–,–,"Average MIC [1, 4]: 16 µg/mL"
